In patent publication US20030219451A1, “Stable helical C peptides and uses therefor” (priority 2001, published 2003):
pIC50: −log10 of the molar value. Where “and” joins values, the source holds several entries; their conditions need not be identical. Equal values may be shown once. Read-outs that look alike come from different tables or passages of the source.

Experiments:
[1] = tested on: HIV-1 envelope mediated fusion of CHO gp160 cells with CD4 HeLa cells
Experimental: The peptides were tested for inhibiting the fusion of HIV-1 Env expressing cells (CHO gp 160) with CD4expressing cells (CD4 HeLa) (D. C. Chan, et al., Proc. Natl. Acad. Sci., 95:15613-15617 (1998)).
(§1) Assessment of viral infectivity and syncytia formation were carried out as described by Eckert et al., Cell, 99:103-115 (1999). In both inhibition assays, peptide stocks were dissolved in dimethylsulfoxide and their concentrations determined by absorbance in guanidine at 280 nm. The final concentration of dimethylsulfoxide in tissue culture media was 1% in all experiments. Inhibition of cell-cell fusion (syncytia formation) (G. J. Nabel, Nature 410, 1002-1007 (2001); D. C. Chan, C. T. Chutkowski, P. S. Kim, Proc. Natl. Acad. Sci. 95, 15613-15617 (1998)) was assayed by co-culturing 3×10^4 Chinese hamster ovary (CHO) cells expressing HXB2 envelope and tat and rev with 5×10^4 HeLa cells expressing CD4 and LTR-driven β-galactosidase in the presence of varying concentrations of peptides. The CHO and HeLa cells were incubated in the presence of peptides for 20 hours, and stained with 5-bromo-4-chloro-3-indolyl-β-D-galactoside (X-gal) to detect the syncytia, which were visualized by microscopy and counted manually. In the viral infectivity assay, the ability of the peptides to inhibit HIV-1 infection was assayed using a recombinant luciferase-encoding HIV-1 (G. J. Nabel, Nature 410, 1002-1007 (2001); D. C. Chan, C. T. Chutkowski, P. S. Kim, Proc. Natl. Acad. Sci. 95, 15613-15617 (1998)). 293T cells were co-transfected with an envelope-deficient HIV-1 genome with a luciferase gene (NL43LucR-E-) [B. K. Chen, K. Saksela, R. Andino, D. Baltimore, J. Virol. 68, 654-660 (1994)] and the HXB2 gp160 expression vector (pCMVHXB2 gpl60). Low-speed centrifugation was used to clear the viral supernatants of cellular debris. The supernatant containing the viruses was used to infect HOS cells expressing CD4 and CXCR4 (HOS-CD4/Fusin cells, N. Landau, National Institutes of Health AIDS Reagent Program) in the presence of varying concentrations of peptides. The HOS cells were harvested 48 hours post-infection, and luciferase activity was monitored using a Wallac AutoLumat LB953 luminometer. In both assays, the IC50, the concentration needed to inhibit 50% of cell-cell fusion events or luciferase activity, was calculated from fitting the data to the equation, y=k/(1+[peptide]/IC50), where y=number of syncytia or luciferase activity and k is a scaling constant.
To test how well the HIV-1-neutralizing epitope was recapitulated, two assays were used to measure the potency of the designed peptides in inhibiting HIV-1 envelope-mediated membrane fusion. The biological activity of the designed peptides were first measured by their ability to inhibit fusion of HeLa cells expressing CD4 and chemokine receptors and CHO expressing HIV envelope protein (D. C. Chan, C. T. Chutkowski, P. S. Kim, Proc. Natl. Acad. Sci. 95: 15613-15617 (1998)).

[2] = tested on: recombinant luciferase-expressing HIV-1 infecting HOS-CD4/Fusin cells
Experimental: The peptides were tested for inhibition of CD4 positive target cells (HOST4) by recombinant, luciferase-expressing HIV-1 (D. C. Chan, C. T. Chutkowski, P. S. Kim, Proc. Natl. Acad. Sci. 95, 15613-15617 (1998)).
as §1
In a second assay, the ability of the peptides to inhibit HIV infection of HOS cells expressing CD4 and CXCR4 was measured, using a luciferase-based reporter assay (D. C. Chan, C. T. Chutkowski, P. S. Kim, Proc. Natl. Acad. Sci. 95: 15613-15617 (1998); Chen, B. K., et al.,J. Virol., 68(2):[…] (1994)).

[3] = Circular dichroism spectroscopy; assay type: physicochemical; settings: PBS, pH 7.0, 25° C., C34-GCN4 with about 0.7 M guanidine hydrochloride
Experimental: The guanidine hydrochloride used to solubilize C34-GCN4 absorbs light at wavelengths below 210 nm. Experimental conditions were PBS, pH 7.0, 25° C.
CD spectra were measured on an Aviv 60DS spectrapolarimeter at 25° C. in phosphate buffered saline (PBS; 10 mM sodium phosphate, 150 mM NaCl, pH 7.0). […] Guanidine concentrations were measured by refractometry.

[4] = biological target: HIV-1 gp41 envelope glycoprotein (HXB2 envelope) (HIV-1 (HXB2)) (UniProt P04578); assay: cell-based or functional assay
[5] = 10 μM; Gonzalez et al. 1996; cited from earlier work
[6] = tested on: HIV-1 envelope mediated fusion of CHO gp160 cells with CD4 HeLa cells; settings: C34 data taken from Chan et al., PNAS 95:15613 (1998); read-out: Cell-Cell Fusion Assay (IC50 in nM); cited from earlier work
[7] = tested on: recombinant luciferase-expressing HIV-1 infecting HOS-CD4/Fusin cells; settings: C34 data taken from Chan et al., PNAS 95:15613 (1998); read-out: Viral Infectivity Assay (IC50 in nM); cited from earlier work

## Ac-WRMWDLEIKVYTLLIKNLILESEVQQLKNLVELR-NH2 (C-terminus assumed) [Peptide C34-GCN4]
other
  solubility: < 1 µM
[1]
  inhibition of cell-cell fusion, in words: strong inhibitory potency
[1]; read-out: Cell-Cell Fusion Assay (IC50 in nM), CHO cells expressing HXB2 envelope co-cultured with CD4 HeLa cells, 20 hours, 1% DMSO
  IC50: 4.6 nM and 5 nM
[2]; read-out: Viral Infectivity Assay (IC50 in nM), HOS cells expressing CD4 and CXCR4, luciferase 48 hours post-infection, 1% DMSO
  IC50: 16 nM
[3]; listed as C34-GCN4 peptide
  [Θ]222 value: −12,400 deg cm^2 dmol^−1 and −12,000 deg cm^2 dmol^−1

## GCN4 homodimer
[4]
  inhibition of cell-cell fusion: > 50 µM
  inhibition of viral infectivity: > 50 µM

## GCN4 homodimer: covalent homodimer of CGG-GCN4
[1]
  inhibition of cell-cell fusion, in words: no activity
[1]; CHO cells expressing HXB2 envelope co-cultured with CD4 HeLa cells, 20 hours, 1% DMSO
  Cell-Cell Fusion Assay (IC50 in nM): none
[1]; read-out: no inhibitory activity in cell-cell fusion up to stated concentration, highest concentration without measurable inhibition
  pIC50: < 4.30
[2]
  inhibition of viral infectivity, in words: no activity
[2]; HOS cells expressing CD4 and CXCR4, luciferase 48 hours post-infection, 1% DMSO
  Viral Infectivity Assay (IC50 in nM): none
[2]; read-out: no inhibitory activity in viral infectivity up to stated concentration, highest concentration without measurable inhibition
  pIC50: < 4.30
[5]
  transition midpoint under temperature denaturation: over 100 °C

## C34-GCN4 peptide (designed binder)
[4]
  Cell-Cell Fusion Assay (IC50 in nM): 5 nM
  Viral Infectivity Assay (IC50 in nM): 16 nM
  inhibition of cell-cell fusion, IC50: 4.6 nM
  inhibition of viral infectivity, IC50: 19 nM

## C34: linear C-peptide of HIV-1 gp41 (SEQ ID NO: 2), unstructured in solution [Peptide C34]
[6]
  IC50: 0.6 nM
[7]
  IC50: 2.1 nM
[3]
  [Θ]222 value: −3,800 deg cm^2 dmol^−1
